# Like-named read-outs stand apart in the source and are kept apart here.
# Columns and labels:
# [1] = Toxicokinetics after escalating intravenous doses of CKLP1 in beagles; type: in vivo, beagle dog; conditions: male, beagle, dog, in vivo, iv
# Procedure: (§1) Two beagles (one male and one female) were intravenously injected with escalating doses of CKPL1 (0.05 mg/kg, 0.5 mg/kg, 1.5 mg/kg, 3 mg/kg, and 5 mg/kg) to assess the toxicity of CKLP1. The injection was done through the cephalic vein and CKLP1 was administered in a phosphate buffered saline solution ((0.096% sodium phosphate dibasic, 0.089% sodium dihydrogen orthophosphate monohydrate, 0.83% sodium chloride) pH 6.5±0.1 in sterile water for injection USP). The dosing schedule is shown below in Table 3.
# (§2) The following parameters and endpoints were evaluated: mortality, clinical observations, body and organ weights, and food consumption. Bioanalytical samples for toxicokinetic parameters (for both CKLP1 and leveromakalim) were collected after each dose level (days 1, 3, 8, 10, and 14) at predose, 1, 3, 6, 8, and 24 hours postdose. Animals were released from the study after completion of the bioanalytical sample collection schedule.
# Toxicokinetics (TK) were determined based on the individual exposures for each animal on each sampled study day (days 1, 3, 8, 10, and 14). […] Predose samples had no quantifiable exposure in any animal on any day, with the exception of the female dog on day 10. The predose concentration for the female dog on day 10 was excluded from the TK analysis in order to allow for estimation of the IV C0.
# [2] = Concentration of CKLP1 and levcromakalim in ocular and systemic tissues of hound dogs; type: in vivo, hound dog; conditions: for concentration at 23 h: hound, dog
# Procedure: After blood collection for pharmacokinetic studies, bilateral ocular treatment with CKLP1 (10 mM) continued in the hound dogs for 4-5 additional days.
# For ocular tissue collection, eyes were enucleated and aqueous humor, vitreous humor, trabecular meshwork, optic nerve, ciliary body, iris, retina and cornea were isolated and stored at −80° C. While collecting tissues during necropsy, portions of heart, kidney, lung, brain, liver and skeletal muscle were immediately frozen for pharmacodynamics analysis, while the remaining tissue samples were immediately fixed in 10% neutral buffered formalin.
# Immediately prior to analysis, tissues were thawed and their weight was measured. PBS was added at double the tissue volume homogenized in a rotor stator homogenizer for 30 seconds. […] Detection was accomplished using positive electrospray ionization with multiple-reaction monitoring (MRM). […] Data were acquired and analyzed using Waters MassLynx v4.1 software.
# [3] = system: human alkaline phosphatase (ALP); test: Conversion of CKLP1 by human alkaline phosphatase, LC/MS-MS, pH 7.4; type: biochemical; conditions: up to 2 hours
# Procedure: Conversion of CKLP1 (200 μM-5.0 mM) was examined by LC/MS-MS following incubation at pH 7.4 with either human alkaline phosphatase (ALP), acid phosphatase, or 5′-nucleotidase (2.01 nM-1.0 μM) for up to 2 hours.
# [4] = system: beagles; test: Toxicity and clinical signs after escalating intravenous doses of CKLP1 in beagles; type: in vivo, beagle dog; conditions: for dose with red discoloration of the skin: IV
# Procedure: as §1, §2
# [5] = as above; type: in vivo, beagle dog; conditions: both sexes, beagle, dog, in vivo
# Procedure: as §1, §2
structure (smiles),measurement,setting,value
CC1(C)Oc2ccc(C#N)cc2[C@@H](N2CCCC2=O)[C@@H]1OP(=O)(O)O [CKLP1],AUC(0-inf),[1]; 0.05 mg/kg,1230 ng·h/mL
same,AUC(0-t),[1]; 0.05 mg/kg,1120 ng·h/mL
same,C0,[1]; 0.05 mg/kg,301 ng/mL
same,Cmax,[1]; 0.05 mg/kg,245 ng/mL
same,Tlast,[1]; 0.05 mg/kg,8.00 h
same,Tmax,[1]; 0.05 mg/kg,1 h
same,Vd,[1]; 0.05 mg/kg,0.131 L/kg
same,clearance,[1]; 0.05 mg/kg,0.678 mL/min/kg
same,half-life,[1]; 0.05 mg/kg,2.23 h
same,λZ range,[1]; 0.05 mg/kg,3 to 8 h
same,AUC(0-inf),[1]; 0.5 mg/kg,14300 ng·h/mL
same,AUC(0-t),[1]; 0.5 mg/kg,14300 ng·h/mL
same,C0,[1]; 0.5 mg/kg,3580 ng/mL
same,Cmax,[1]; 0.5 mg/kg,2600 ng/mL
same,RAUC,[1]; 0.5 mg/kg,12.8
same,Tlast,[1]; 0.5 mg/kg,24.0 h
same,Tmax,[1]; 0.5 mg/kg,1 h
same,Vd,[1]; 0.5 mg/kg,0.143 L/kg
same,clearance,[1]; 0.5 mg/kg,0.583 mL/min/kg
same,half-life,[1]; 0.5 mg/kg,2.84 h
same,λZ range,[1]; 0.5 mg/kg,3 to 24 h
same,AUC(0-inf),[1]; 1.5 mg/kg,43300 ng·h/mL
same,AUC(0-t),[1]; 1.5 mg/kg,43200 ng·h/mL
same,C0,[1]; 1.5 mg/kg,10400 ng/mL
same,Cmax,[1]; 1.5 mg/kg,7690 ng/mL
same,RAUC,[1]; 1.5 mg/kg,38.6
same,Tlast,[1]; 1.5 mg/kg,24.0 h
same,Tmax,[1]; 1.5 mg/kg,1 h
same,Vd,[1]; 1.5 mg/kg,0.146 L/kg
same,clearance,[1]; 1.5 mg/kg,0.578 mL/min/kg
same,half-life,[1]; 1.5 mg/kg,2.91 h
same,λZ range,[1]; 1.5 mg/kg,1 to 24 h
same,AUC(0-inf),[1]; 3 mg/kg,89000 ng·h/mL
same,AUC(0-t),[1]; 3 mg/kg,85100 ng·h/mL
same,C0,[1]; 3 mg/kg,18500 ng/mL
same,Cmax,[1]; 3 mg/kg,14400 ng/mL
same,RAUC,[1]; 3 mg/kg,76.0
same,Tlast,[1]; 3 mg/kg,24.0 h
same,Tmax,[1]; 3 mg/kg,1 h
same,Vd,[1]; 3 mg/kg,0.303 L/kg
same,clearance,[1]; 3 mg/kg,0.562 mL/min/kg
same,half-life,[1]; 3 mg/kg,6.22 h
same,λZ range,[1]; 3 mg/kg,6 to 24 h
same,AUC(0-inf),[1]; 5 mg/kg,160000 ng·h/mL
same,AUC(0-t),[1]; 5 mg/kg,159000 ng·h/mL
same,C0,[1]; 5 mg/kg,25900 ng/mL
same,Cmax,[1]; 5 mg/kg,22400 ng/mL
same,RAUC,[1]; 5 mg/kg,142
same,Tlast,[1]; 5 mg/kg,24.0 h
same,Tmax,[1]; 5 mg/kg,1 h
same,Vd,[1]; 5 mg/kg,0.156 L/kg
same,clearance,[1]; 5 mg/kg,0.522 mL/min/kg
same,half-life,[1]; 5 mg/kg,3.47 h
same,λZ range,[1]; 5 mg/kg,1 to 24 h
same,concentration in lung,"[2]; 23 hours after last dose, topical 10 mM CKLP1 12-13 days",undetected
same,concentration at 23 h,"[2]; aqueous humor, 23 hours after last dose, topical 10 mM CKLP1 12-13 days, two animals, read-out: concentration in aqueous humor",10.2 ± 14.4 ng/g
same,concentration at 23 h,"[2]; ciliary body, 23 hours after last dose, topical 10 mM CKLP1 12-13 days, two animals, read-out: concentration in ciliary body",10.3 ± 8.1 ng/g
same,concentration at 23 h,"[2]; cornea, 23 hours after last dose, topical 10 mM CKLP1 12-13 days, two animals, read-out: concentration in cornea",31.3 ± 10.8 ng/g
same,concentration at 23 h,"[2]; heart, 23 hours after last dose, topical 10 mM CKLP1 12-13 days, read-out: concentration in heart",3.7 ± 0.5 ng/g
same,concentration at 23 h,"[2]; iris, 23 hours after last dose, topical 10 mM CKLP1 12-13 days, two animals, read-out: concentration in iris",4.8 ± 1.1 ng/g
same,concentration at 23 h,"[2]; kidney, 23 hours after last dose, topical 10 mM CKLP1 12-13 days, read-out: concentration in kidney",2.7 ± 2.9 ng/g
same,concentration at 23 h,"[2]; optic nerve, 23 hours after last dose, topical 10 mM CKLP1 once daily 12-13 days, two animals, read-out: concentration in optic nerve",63.8 ± 63.1 ng/g
same,concentration at 23 h,"[2]; retina, 23 hours after last dose, topical 10 mM CKLP1 12-13 days, two animals, read-out: concentration in retina",6.2 ± 3.8 ng/g
same,concentration at 23 h,"[2]; trabecular meshwork, 23 hours after last dose, topical 10 mM CKLP1 12-13 days, two animals, read-out: concentration in trabecular meshwork",170 ± 21.6 ng/g
same,concentration at 23 h,"[2]; vitreous humor, 23 hours after last dose, topical 10 mM CKLP1 12-13 days, two animals, read-out: concentration in vitreous humor",24.4 ± 2.4 ng/g
same,concentration in urine,[2]; topical 10 mM CKLP1 12-13 days,88.0 ± 134.9 ng/mL
same,rate constant for catalytic conversion (kcat),[3]; CKLP1 200 μM-5.0 mM,0.25 s⁻¹
same,Km,"[3]; CKLP1 200 μM-5.0 mM, read-out: Michaelis constant (Km)",630 µM
same,conversion of CKLP1 to levcromakalim,[3]; human ALP,converted
same,adverse clinical signs,[4]; IV 5 mg/kg,"increased heart rate, warm to touch, and/or partly closed eyes"
same,Clinical Signs,[4]; IV CKLP1 0.5 mg/kg,"red discoloration of the skin (pinnae, gums, generalized"
same,Clinical Signs,[4]; IV CKLP1 1.5 mg/kg,"red discoloration of the skin (pinnae, gums, generalized"
same,Clinical Signs,[4]; IV CKLP1 3 mg/kg,"red discoloration of the skin (pinnae, gums, generalized"
same,Clinical Signs,[4]; IV CKLP1 5 mg/kg,"red discoloration of the skin (pinnae, gums, generalized"
same,histological examination,[4]; escalating IV doses,no systemic toxicity
same,"mortality, body weight, food consumption",[4]; escalating IV doses 0.05-5 mg/kg,"No mortality, change in body weight or food consumption"
same,dose with red discoloration of the skin,[4]; female dog,≥ 0.5 mg/kg
same,peripheral vasodilation,[4]; following intravenous administration in dogs,induces peripheral vasodilation
same,dose with red discoloration of the skin,[4]; male dog,≥ 0.05 mg/kg
same,NOAEL,"[5]; iv, read-out: no-observed adverse effect level (NOAEL)",3 mg/kg
same,MTD,"[5]; single escalating IV doses, read-out: maximum tolerated dose (MTD)",3 mg/kg
